Data on five compounds can be found in patent US4460777A, “N-Substituted-2-pyridylindoles” (Ciba-Geigy Corporation, priority 1982, dated 1984).

SMILES strings stand for the structures.

The target of experiment [1] is T1, prostaglandin cyclooxygenase (Ovis aries, UniProt P05979).
T1 construct: Lyophilized sheep seminal vesicle microsomes are utilized as the prostaglandin-synthesizing enzyme preparation; from tissue; host or cells: lyophilized sheep seminal vesicle microsomes
T1 sequence (P05979 25-600): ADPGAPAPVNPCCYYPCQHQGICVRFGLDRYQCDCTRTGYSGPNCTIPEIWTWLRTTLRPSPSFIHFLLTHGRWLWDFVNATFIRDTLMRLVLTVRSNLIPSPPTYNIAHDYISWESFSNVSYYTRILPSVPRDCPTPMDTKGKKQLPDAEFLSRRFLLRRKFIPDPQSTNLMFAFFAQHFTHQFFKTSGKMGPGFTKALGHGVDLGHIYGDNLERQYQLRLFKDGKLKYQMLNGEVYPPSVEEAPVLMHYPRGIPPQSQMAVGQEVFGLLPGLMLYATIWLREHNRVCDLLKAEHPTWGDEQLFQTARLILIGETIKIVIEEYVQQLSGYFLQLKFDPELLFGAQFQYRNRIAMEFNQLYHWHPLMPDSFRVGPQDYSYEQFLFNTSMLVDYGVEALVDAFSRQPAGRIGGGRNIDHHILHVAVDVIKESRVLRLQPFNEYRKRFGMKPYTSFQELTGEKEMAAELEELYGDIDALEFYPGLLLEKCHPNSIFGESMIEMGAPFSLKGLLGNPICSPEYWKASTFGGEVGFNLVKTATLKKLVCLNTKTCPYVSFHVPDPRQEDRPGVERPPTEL
Kind of experiment: in-vitro effect on prostaglandin cyclooxygenase. It is filed as biochemical, sheep. Particulars: 50% reduction in PGE2 synthesized, read-out: IC50 for inhibition of cyclooxygenase. On the procedure: The in-vitro effect on prostaglandin cyclooxygenase is measured by a modification of the method of Takeguchi et al. described in Biochemistry 10, 2372 (1971); the testing procedure is as follows: Lyophilized sheep seminal vesicle microsomes are utilized as the prostaglandin-synthesizing enzyme preparation. The conversion of ^14 C-arachidonic acid to PGE2 is measured. Test compounds (dissolved in buffer, or if necessary, in small amount of ethanol) are added to the incubation mixture. The prostaglandins are extracted and separated by thin-layer chromatography; the plates are scanned, the radioactive zones corresponding to PGE2 are transferred to liquid scintillation vials and counted for radioactivity. IC50 values for inhibition are determined graphically as the concentration of test compound causing a 50% reduction in the amount of PGE2 synthesized.

Experiment [2] concerns the target T2, prostacyclin (PGI2) synthetase (Bos taurus, UniProt Q29626).
T2 construct: crude PGI2 synthetase in the form of a microsomal fraction of bovine aorta; from tissue; host or cells: bovine aorta, microsomal fraction
T2 sequence (Q29626 1-500): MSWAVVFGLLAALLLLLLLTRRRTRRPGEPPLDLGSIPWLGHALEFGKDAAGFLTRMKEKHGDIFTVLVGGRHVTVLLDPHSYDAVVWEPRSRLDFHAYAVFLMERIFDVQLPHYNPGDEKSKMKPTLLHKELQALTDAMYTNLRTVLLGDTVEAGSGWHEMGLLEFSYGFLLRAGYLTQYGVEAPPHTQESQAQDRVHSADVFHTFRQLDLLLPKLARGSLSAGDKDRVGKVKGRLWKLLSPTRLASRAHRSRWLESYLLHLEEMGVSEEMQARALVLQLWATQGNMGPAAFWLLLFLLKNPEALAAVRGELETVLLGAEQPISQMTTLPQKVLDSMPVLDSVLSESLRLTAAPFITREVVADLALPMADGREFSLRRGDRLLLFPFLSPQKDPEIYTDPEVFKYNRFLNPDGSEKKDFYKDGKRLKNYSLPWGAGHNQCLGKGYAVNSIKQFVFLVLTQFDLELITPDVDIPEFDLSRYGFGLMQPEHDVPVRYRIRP
Kind of experiment: in-vitro effect on prostacyclin (PGI2) synthetase. It is filed as biochemical, bovine. Particulars: ratio 6-keto-PGF1α/PGE2 reduced to 50% of control, read-out: IC50 for inhibition of prostacyclin synthetase. On the procedure:
The in-vitro effect on prostacyclin (PGI2) synthetase is measured analogous to the method of Sun et al., Prostaglandins 14, 1055 (1977);
The testing procedure is as follows:
^14 C-Arachidonic acid is incubated with an enzyme mixture consisting of solubilized and partially purified prostaglandin cyclo-oxygenase from sheep seminal vesicles and crude PGI2 synthetase in the form of a microsomal fraction of bovine aorta.
Test compound (dissolved in buffer, or if necessary, in a small amount of ethanol) is placed in the incubation medium. The reaction mixture is incubated in 100 mM Tris HCl (pH 7.5) for 30 minutes at 37° C., acidified to pH 3 and extracted into ethyl acetate. The extract is evaporated to dryness; the residue is dissolved in acetone, spotted on thin-layer plates and chromatographed in a solvent system described in Sun et al. The radioactive zones are located with a scanner; those corresponding to 6-keto-PGF1 α (a stable end product of prostacyclin biotransformation) and PGE2 are transferred to liquid scintillation vials and counted. The ratio of counts for 6-keto-PGF1 α/PGE2 is calculated for each concentration of test compound used. IC50 values for inhibition are determined graphically as the concentration of test compound at which the ratio of 6-keto-PGF1 α/PGE2 is reduced to 50% of the control value.

The test system of the next experiment is thromboxane B2. Nature of the experiment: plasma levels of thromboxane B2 in vivo after ionophore A23187 in rats. Particulars: rat, oral dose as low as 0.10 mg/kg. On the procedure:
(§1) The inhibition of the synthesis and the reduction of plasma levels of thromboxane is determined in vivo on administration to rats in the following manner (as adapted from the procedures described by Tai et al. in Anal. Biochem. 87:343, 1978 and by Salmon in Prostaglglandins 15:383, 1978):
(§2) Rats are dosed with vehicle or test drug and injected intravenously with ionophore A23187 (0.5 mg/kg) two hours later. Blood is collected for analysis 2 minutes after the ionophore injection. A single aliquot of each plasma sample is assayed for thromboxane B2 and another aliquot for 6-keto-PGF1 α, the stable metabolites of thromboxane A2 and prostacyclin (PGI2) respectively, by radioimmunoassay.

The next experiment relates to prostacyclin (PGI2). Nature of the experiment: plasma levels of prostacyclin in vivo after ionophore A23187 in rats. Conditions: rat, oral dose 0.10 mg/kg or higher. As to the method: as §1, §2
Another experiment relates to platelet aggregation. Nature of the experiment: inhibition of variously induced platelet aggregation.
The next experiment deals with thrombocytopenia. Kind of experiment: inhibition of thrombocytopenia.
A short description of experiment [3]: prolongation of bleeding time in the rat. It is filed as in vivo. Conditions: oral, dose of about 30 mg/kg. An excerpt:
Experimentally, prolongation of bleeding time in the rat is indicative of a beneficial antithrombotic effect.

Experiment [4] deals with arachidonic acid induced pulmonary obstruction. Nature of the experiment: protection against sudden death due to arachidonic acid induced pulmonary obstruction. Conditions: mice, oral, 100 mg/kg. It is filed as in vivo.
The next experiment deals with T3, thromboxane synthetase (Homo sapiens, UniProt P24557).
T3 construct: crude microsomal preparation of thromboxane synthetase from lysed human platelets; from tissue; host or cells: lysed human platelets, crude microsomal preparation
T3 sequence (P24557 1-533): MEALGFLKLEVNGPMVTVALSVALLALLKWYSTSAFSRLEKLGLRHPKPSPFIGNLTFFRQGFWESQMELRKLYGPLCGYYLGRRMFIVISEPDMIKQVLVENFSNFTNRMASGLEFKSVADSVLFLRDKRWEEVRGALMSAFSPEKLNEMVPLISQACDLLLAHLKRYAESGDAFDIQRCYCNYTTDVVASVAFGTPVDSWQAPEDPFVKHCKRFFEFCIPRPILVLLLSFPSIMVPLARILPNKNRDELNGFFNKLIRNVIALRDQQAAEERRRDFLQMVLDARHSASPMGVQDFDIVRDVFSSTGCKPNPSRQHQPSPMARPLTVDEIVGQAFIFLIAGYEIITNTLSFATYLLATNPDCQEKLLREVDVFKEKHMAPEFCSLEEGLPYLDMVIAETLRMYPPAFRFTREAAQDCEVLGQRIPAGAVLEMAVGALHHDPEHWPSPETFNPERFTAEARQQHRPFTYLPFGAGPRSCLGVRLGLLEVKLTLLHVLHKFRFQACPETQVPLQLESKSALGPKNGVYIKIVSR
Nature of the experiment: in vitro inhibition of the thromboxane synthetase enzyme. Conditions: ratio TxB2/PGF2α+β reduced to 50% of control. It is filed as biochemical. On the procedure: Res. Comm. 74, 1432 (1977); the testi g procedure is as follows:
^14 C-Archidonic acid is incubated with an enzyme consisting of solubilized and partially purified prostaglandin cyclo-oxygenase from sheep seminal vesicles and a crude microsomal preparation of thromboxane synthetase from lysed human platelets. The test compound (dissolved in buffer, or if necessary, in a small amount of ethanol) is added to the incubation medium. At the end of the incubation period (30 minutes), Prostaglandin E2 (PGE2) is reduced to a mixture of Prostaglandin F2 α and F2 β (PGF2α+β) by addition of sodium borohydride. The radioactive products and excess substrate are extracted into ethyl acetate; the extract is evaporated to dryness; the residue is dissolved in acetone, spotted on thin-layer plates and chromatographed in the solvent system toluene:acetone:glacial acetic acid (100 volumes:100 volumes:3 volumes). The radioactive zones are located; those corresponding to Thromboxane B2 (TxB2) and PGF2 α+β are transferred to liquid scintillatiopn vials and counted. The ratio of counts for TxB2 /PGF2 α+β is calculated for each concentration of test compound and IC50 values are determined graphically as the concentration of test compound at which the ratio of TxB2 /PGF2 α+β is reduced to 50% of the control value.

For orientation: IC50 means the concentration that gives 50% inhibition. Take `Cc1c(-c2cccnc2)n(CCCCCCCC(=O)O)c2ccccc12` [Example 1, 1-(7-carboxyheptyl)-3-methyl-2-(3-pyridyl)indole]: the IC50 in [1] and in experiment [2] was around 100000 nM each time. The “decrease of the plasma concentration of thromboxane B2” value with thromboxane B2 is “over 50%”. Moreover, the “plasma level of prostacyclin” value with prostacyclin (PGI2) was “a surprising increase”. Besides, the “inhibition of variously induced platelet aggregation” value in the experiment with platelet aggregation is recorded as “inhibits”. The inhibition of thrombocytopenia entry in the experiment with thrombocytopenia is recorded as “inhibits”. For the same compound, the bleeding time entry in experiment [3] is reported as “prolongs bleeding time”. Moreover, in experiment [4], the “protection against sudden death” value was “protects against sudden death”.

Take `Cc1c(-c2cccnc2)n(CCCCCC(=O)O)c2ccc(Cl)cc12` [Example 7, 1-(5-carboxypentyl)-5-chloro-3-methyl-2-(3-pyridyl)indole]: the IC50 at thromboxane synthetase amounted to 1 nM.

For the compound `Cc1c(-c2cccnc2)n(CCCCCC(=O)O)c2ccc(CCC(=O)O)cc12` [Example 9, 1-(5-carboxypentyl)-5-(2-carboxyethyl)-3-methyl-2-(3-pyridyl)indole], on thromboxane synthetase, the IC50 was 20 nM.

Take `Cc1c(-c2cccnc2)n(Cc2ccc(C(=O)O)cc2)c2ccccc12` [Example 11, 1-(4-carboxybenzyl)-3-methyl-2-(3-pyridyl)indole]: at thromboxane synthetase, the IC50 was found to be 50 nM.

On to `Cc1c(-c2cccnc2)n(CCCCCC(N)=O)c2ccc(Cl)cc12` [Example 13, 1-(5-carbamoylpentyl)-5-chloro-3-methyl-2-(3-pyridyl)indole], for which the IC50 on thromboxane synthetase was determined as 10 nM.
